Holding throughout (assay type): functional
For experiment [1], the system named is Mycobacterium tuberculosis. The experiment in a line: Ratio of MIC for Mycobacterium tuberculosis harboring luxABCDE under hypoxic condition in presence of 10% fetal bovine serum to MIC for Mycobacterium tuberculosis harboring luxABCDE under hypoxic condition in absence of 10% fetal bovine serum by MABA assay. For orientation: The colour change of resazurin is a common sign of viable cells or microbes.

In experiment [2] the test system is Mycobacterium tuberculosis. The experiment is described as follows: Ratio of MIC for Mycobacterium tuberculosis harboring luxABCDE under hypoxic condition in presence of 4% bovine serum albumin to MIC for Mycobacterium tuberculosis harboring luxABCDE under hypoxic condition in absence of 4% bovine serum albumin by MABA assay.
The subject of experiment [3] is Mycobacterium tuberculosis. The experiment is described as follows: Antimycobacterial activity against Mycobacterium tuberculosis harboring luxABCDE under hypoxic condition after 10 days by MABA assay in presence of 10% fetal bovine serum. The conditions noted are these: 240 h.
Experiment [4] has as its system Mycobacterium tuberculosis. The experiment in a line: Antimycobacterial activity against Mycobacterium tuberculosis harboring luxABCDE under hypoxic condition after 10 days by MABA assay in presence of 4% bovine serum albumin. The conditions noted are these: 240 h.
The test system of experiment [5] is Mycobacterium tuberculosis. The experiment in a line: Antimycobacterial activity against capreomycin-resistant Mycobacterium tuberculosis under normoxic condition after 7 days by MABA assay. The settings on record: 168 h.
Experiment [6] deals with Mycobacterium tuberculosis. The experiment is described as follows: Antimycobacterial activity against cycloserine-resistant Mycobacterium tuberculosis ATCC 35826 under normoxic condition after 7 days by MABA assay. The conditions noted are these: ATCC 35826, 168 h.
The test system of experiment [7] is Mycobacterium tuberculosis. The experiment is described as follows: Antimycobacterial activity against isoniazid-resistant Mycobacterium tuberculosis ATCC 35822 under normoxic condition after 7 days by MABA assay. The conditions noted are these: ATCC 35822, 168 h.
Experiment [8] relates to Mycobacterium tuberculosis. The experiment is described as follows: Antimycobacterial activity against kanamycin-resistant Mycobacterium tuberculosis ATCC 35827 under normoxic condition after 7 days by MABA assay. The settings on record: ATCC 35827, 168 h.
The test system of experiment [9] is Mycobacterium tuberculosis. The experiment is described as follows: Antimycobacterial activity against moxifloxacin-resistant Mycobacterium tuberculosis under normoxic condition after 7 days by MABA assay. The conditions noted are these: 168 h.
The subject of experiment [10] is Mycobacterium tuberculosis. The experiment in a line: Antimycobacterial activity against rifampin-resistant Mycobacterium tuberculosis ATCC 35838 under normoxic condition after 7 days by MABA assay. The conditions noted are these: ATCC 35838, 168 h.
Experiment [11] concerns Mycobacterium tuberculosis. The experiment in a line: Antimycobacterial activity against streptomycin-resistant Mycobacterium tuberculosis ATCC 35820 under normoxic condition after 7 days by MABA assay. The settings on record: ATCC 35820, 168 h.
Experiment [12] deals with Mycobacterium tuberculosis. The experiment is described as follows: Antimycobacterial activity against Mycobacterium tuberculosis harboring luxABCDE under hypoxic condition after 10 days by MABA assay. The conditions noted are these: for MIC90: Mycobacterium tuberculosis, 240 h.

Molecules are shown by their SMILES. In brackets after ≈: the same amount, converted by molar mass. Bounds are passed on as bounds.

For orientation: MIC90 means the lowest concentration that inhibits either 90% of growth or 90% of the strains tested, depending on the study.

For the compound `CC[C@H](C)[C@H]1NC(=O)[C@H](CC(C)C)NC(=O)[C@H]2CCCNN2C(=O)[C@H](C)N(C)C(=O)[C@H]2CCCNN2C(=O)[C@@H]2CCCNN2C1=O`, the Ratio in experiment [1] and in experiment [2] was 10 each time. In addition, the MIC90 is 9.9 µg/mL in experiment [3]; 10.8 µg/mL in experiment [4]; 4.8 µg/mL (≈ 7.41 µM) in experiment [5]; 7.4 µg/mL (≈ 11.4 µM) in [6]; 4.7 µg/mL (≈ 7.26 µM) in experiment [7]; 4.9 µg/mL (≈ 7.56 µM) in [8]. In addition, the MIC90 was determined as 4 µg/mL (≈ 6.17 µM) in experiment [9], 4.7 µg/mL (≈ 7.26 µM) in experiment [10], 4.7 µg/mL (≈ 7.26 µM) in experiment [11] and 1.5 µg/mL (≈ 2.32 µM) in experiment [12]. For the same compound, the MBC90 in experiment [12] was 10.5 µg/mL (≈ 16.2 µM).
Regarding `CC(C)C[C@@H]1NC(=O)[C@H]2CCCNN2C(=O)[C@H](C)N(C)C(=O)[C@H]2CCCNN2C(=O)[C@@H]2CCCNN2C(=O)[C@@H](C(C)C)NC1=O`, the Ratio in experiment [1] and in experiment [2] was 10 throughout. Also, the MIC90 is 20.9 µg/mL in [3]; 19.1 µg/mL in experiment [4]; 12.1 µg/mL (≈ 19.1 µM) in experiment [5]; 20.6 µg/mL (≈ 32.5 µM) in [6]; 12.1 µg/mL (≈ 19.1 µM) in [7]; 12.4 µg/mL (≈ 19.6 µM) in experiment [8]. In addition, the MIC90 was found to be 9 µg/mL (≈ 14.2 µM) in experiment [9], 9.6 µg/mL (≈ 15.1 µM) in experiment [10], 11.6 µg/mL (≈ 18.3 µM) in experiment [11] and 2.4 µg/mL (≈ 3.79 µM) in experiment [12]. Also, the MBC90 in experiment [12] came to 19.5 µg/mL (≈ 30.8 µM).
With `CO[C@H]1/C=C/O[C@@]2(C)Oc3c(C)c(O)c4c(O)c(c(/C=N/N5CCN(C)CC5)c(O)c4c3C2=O)NC(=O)/C(C)=C\C=C\[C@H](C)[C@H](O)[C@@H](C)[C@@H](O)[C@@H](C)[C@H](OC(C)=O)[C@@H]1C` [RIFAMPIN], the MIC90 in experiment [3] was 0.1 µg/mL; in experiment [4] it was 0.2 µg/mL; in experiment [5], 0.04 µg/mL (≈ 0.0486 µM); in experiment [6], below 0.01 µg/mL; in [7], 0.01 µg/mL (≈ 0.0122 µM); in experiment [8] it was below 0.01 µg/mL. Also, the MIC90 is 0.1 µg/mL (≈ 0.122 µM) in [9], above 3.3 µg/mL in experiment [10], below 0.01 µg/mL in experiment [11] and below 0.1 µg/mL in experiment [12]. This compound also yielded an MBC90 in experiment [12] of 0.5 µg/mL (≈ 0.608 µM).
For `CN[C@@H]1[C@H](O[C@H]2[C@H](O[C@H]3[C@H](O)[C@@H](O)[C@H](N=C(N)N)[C@@H](O)[C@@H]3N=C(N)N)O[C@@H](C)[C@]2(O)C=O)O[C@@H](CO)[C@H](O)[C@H]1O` [STREPTOMYCIN], the MIC90 in experiment [3] is 0.6 µg/mL; in [4], 0.4 µg/mL; in experiment [5], 1.1 µg/mL (≈ 1.89 µM); in experiment [6], 0.4 µg/mL (≈ 0.688 µM); in [7], 0.1 µg/mL (≈ 0.172 µM); in experiment [8], 1.1 µg/mL (≈ 1.89 µM). Besides, the MIC90 in experiment [9] is 0.5 µg/mL (≈ 0.86 µM); in experiment [10], 0.1 µg/mL (≈ 0.172 µM); in experiment [11], above 9.3 µg/mL; in experiment [12], 0.6 µg/mL (≈ 1.03 µM).
Turning to `Cc1ncc([N+](=O)[O-])n1CCO` [METRONIDAZOLE], the MIC90 in experiment [3] is 5.3 µg/mL; in experiment [4] it was 13.5 µg/mL; in experiment [5], above 87.6 µg/mL; in experiment [6], above 87.6 µg/mL; in experiment [7] it was above 87.6 µg/mL; in [8], above 87.6 µg/mL. In addition, the MIC90 in experiment [9], in experiment [10], in experiment [11] and in experiment [12] was above 87.6 µg/mL in each case.
Turning to `NNC(=O)c1ccncc1` [ISONIAZID], the MIC90 in [3] was above 140 µg/mL; in experiment [4], above 140 µg/mL; in experiment [5] it was 0.1 µg/mL (≈ 0.729 µM); in experiment [6], 0.03 µg/mL (≈ 0.219 µM); in experiment [7], above 1.1 µg/mL; in experiment [8], 0.1 µg/mL (≈ 0.729 µM). For the same compound, the MIC90 in [9] was 0.1 µg/mL (≈ 0.729 µM); in [10], 0.1 µg/mL (≈ 0.729 µM); in experiment [11], 0.03 µg/mL (≈ 0.219 µM); in [12], above 140 µg/mL.

(Values after ChEMBL document CHEMBL3085716, “Hytramycins V and I, anti-Mycobacterium tuberculosis hexapeptides from a Streptomyces hygroscopicus strain” (J Nat Prod, 2013).)
